From PMC10974995 (Pathogens, 2024)
Converted amounts (≈) assume the structure as drawn. Read-outs that look alike come from different tables or passages of the source.

Key:
[1] = test system: rodents; settings: in vivo; cited from earlier work
[2] = test system: boar sperm; settings: cited from earlier work
[3] = test system: Rat; settings: po; cited from earlier work
[4] = test system: boar sperm; assay: cells
[5] = test system: Fish; settings: cited from earlier work
[6] = test system: differentiated PK-15 cells
[7] = test system: PK-15 (porcine kidney epithelial cells) and/or FFL (feline fetus lung cells); assay: cells; settings: Sus scrofa
[8] = test system: differentiated PK-15 cells; assay: cells; settings: Sus scrofa, PK-15, read-out: Mitochondrial Toxicity 1d (EC50, acceleration of glycolysis and depolarization of mitochondria)
[9] = test system: boar sperm
[10] = test system: PK-15 (porcine kidney epithelial cells) and/or FFL (feline fetus lung cells)
[11] = test system: boar sperm and PK-15 cells
[12] = 72 h, read-out: EC50 Ex Vivo BSMI 1–3d
[13] = PK-15, 48 h, read-out: EC50 In Vitro ICP 2d
[14] = read-out: EC50 Ex Vivo BSMI, positive controls, mean of 10 or 11 measurements
[15] = PK-15, read-out: EC50 In Vitro ICP, positive controls, mean of 10 or 11 measurements

Compound: CC(C)C[C@H]1OC(=O)[C@H](C(C)C)NC(=O)[C@H](C(C)C)OC(=O)[C@@H](C)NC(=O)[C@@H](CC(C)C)OC(=O)[C@H](C(C)C)NC(=O)[C@H](C(C)C)OC(=O)[C@@H](C)NC(=O)[C@@H](CC(C)C)OC(=O)[C@H](C(C)C)NC(=O)[C@H](C(C)C)OC(=O)[C@@H](C)NC1=O [Cereulide]
- Toxicity to rodents [1]: non-toxic
- Toxicity in sperm motility tests [2]: toxic

Compound: CCCCCCCCCC[N+](C)(C)CCCCCCCCCC [DDAC, Didecyl- dimethyl- ammonium- chloride]
- Toxicity In Vivo LD50 Rat p.o. [3]: 238 mg/kg
- EC50 [4, 12]: 1 µg/mL
- In Vivo (toxicity to experimental animals), xenobiotic chemicals [5]: + (key: LD50 Fish Inhaled <10 μg mL ^–1 = Toxic in vivo Marked as +.)
- Toxicity In Vivo LD50 Fish [5]: 0.5 mg/L
- Mitochondrial toxicity after testing with somatic cells [6]: Mitochondrial toxicity was recorded
- EC50 [7, 13]: 0.5 µg/mL
- EC50 [8]: 1 µg/mL
- Ex Vivo BSMI 1–3d, toxic (+) / nontoxic (−), xenobiotic chemicals ([9]; pig (boar)): (+) 1 (key: (+): For the xenobiotic chemicals, EC50 values < 10 µg mL^−1 and <20 µg mL^−1 were considered as toxic in the BSMI assay and in the ICP assay, respectively; nontoxic as (−))
- In Vitro ICP 2d, toxic (+) / nontoxic (−), xenobiotic chemicals [10]: (+) 0.5 (key: (+): For the xenobiotic chemicals, EC50 values < 10 µg mL^−1 and <20 µg mL^−1 were considered as toxic in the BSMI assay and in the ICP assay, respectively; nontoxic as (−))
- Toxicity profile of pure toxins and chemicals in the BSMI and ICP assays [11]: highly toxic in both assays

Compound: Cc1cc(O)c2c(c1)C(=O)c1cc(O)cc(O)c1C2=O [Emodin]
- Toxicity In Vivo LD50 Rat p.o. [3]: 1000 mg/kg
- EC50 [4, 12]: 4 µg/mL (≈ 14.8 µM)
- EC50 [7, 13]: 45 µg/mL (≈ 167 µM)
- EC50 [8]: 3 µg/mL (≈ 11.1 µM)
- Ex Vivo BSMI 1–3d, toxic (+) / nontoxic (−), microbial metabolites ([9]; pig (boar)): (+) 4 (key: (+): For the microbial metabolites, EC50 < 5 µg mL^−1 and <10 µg mL^−1 were considered as toxic in the BSMI and ICP assays, respectively; nontoxic as (−))
- In Vitro ICP 2d, toxic (+) / nontoxic (−), microbial metabolites [10]: (−) 45

Compound: CC(C)[C@H]1C(=O)O[C@H](C(C)C)C(=O)N(C)[C@@H](C(C)C)C(=O)O[C@H](C(C)C)C(=O)N(C)[C@@H](C(C)C)C(=O)O[C@H](C(C)C)C(=O)N1C [Enniatin B]
- In Vivo (toxicity to experimental animals), mycotoxins and fungal metabolites [3]: + (key: LD50 rat p.o. <1000 mg kg ^–1 Classified as Toxic in vivo +.)
- Toxicity In Vivo LD50 Rat p.o. [3]: 350 mg/kg
- EC50 [4, 12]: 0.5 µg/mL (≈ 0.781 µM)
- EC50 [4, 14]: 0.6 µg/mL (≈ 0.938 µM)
- EC50 [7, 13]: 15 µg/mL (≈ 23.4 µM)
- EC50 [7, 15]: 18 µg/mL (≈ 28.1 µM)
- EC50 [8]: 2 µg/mL (≈ 3.13 µM)
- Ex Vivo BSMI 1–3d, toxic (+) / nontoxic (−), microbial metabolites ([9]; pig (boar)): (+) 0.5 (key: (+): For the microbial metabolites, EC50 < 5 µg mL^−1 and <10 µg mL^−1 were considered as toxic in the BSMI and ICP assays, respectively; nontoxic as (−))
- In Vitro ICP 2d, toxic (+) / nontoxic (−), microbial metabolites [10]: (−) 15

Compound: C[C@@H]1Cc2c(Cl)cc(C(=O)N[C@@H](Cc3ccccc3)C(=O)O)c(O)c2C(=O)O1 [Ochratoxin A]
- In Vivo (toxicity to experimental animals), mycotoxins and fungal metabolites [3]: + (key: LD50 rat p.o. <1000 mg kg ^–1 Classified as Toxic in vivo +.)
- Toxicity In Vivo LD50 Rat p.o. [3]: 20 mg/kg
- EC50 [4, 12]: > 50 µg/mL
- EC50 [7, 13]: > 50 µg/mL
- Ex Vivo BSMI 1–3d, toxic (+) / nontoxic (−), microbial metabolites ([9]; pig (boar)): (−) >50
- In Vitro ICP 2d, toxic (+) / nontoxic (−), microbial metabolites [10]: (−) >50
- Toxicity profile of pure toxins and chemicals in the BSMI and ICP assays [11]: not detected in our assays

Compound: Oc1cc(Cl)ccc1Oc1ccc(Cl)cc1Cl [Triclosan, Triclorooxy-phenylether]
- Toxicity In Vivo LD50 Rat p.o. [3]: 3700 mg/kg
- EC50 [4, 12]: 1 µg/mL (≈ 3.45 µM)
- EC50 [4, 14]: 1 µg/mL (≈ 3.45 µM)
- In Vivo (toxicity to experimental animals), xenobiotic chemicals [5]: + (key: LD50 Fish Inhaled <10 μg mL ^–1 = Toxic in vivo Marked as +.)
- Toxicity In Vivo LD50 Fish [5]: 0.5 mg/L
- Mitochondrial toxicity after testing with somatic cells [6]: Mitochondrial toxicity was recorded
- EC50 [7, 13]: 20 µg/mL (≈ 69.1 µM)
- EC50 [7, 15]: 13 µg/mL (≈ 44.9 µM)
- EC50 [8]: 5 µg/mL (≈ 17.3 µM)
- Sperm motility relative to the negative control [9]: < 20%
- Ex Vivo BSMI 1–3d, toxic (+) / nontoxic (−), xenobiotic chemicals ([9]; pig (boar)): (+) 1 (key: (+): For the xenobiotic chemicals, EC50 values < 10 µg mL^−1 and <20 µg mL^−1 were considered as toxic in the BSMI assay and in the ICP assay, respectively; nontoxic as (−))
- In Vitro ICP 2d, toxic (+) / nontoxic (−), xenobiotic chemicals [10]: 20 (−)

Compound: Alamethicin
- In Vivo (toxicity to experimental animals), mycotoxins and fungal metabolites [3]: + (key: LD50 rat p.o. <1000 mg kg ^–1 Classified as Toxic in vivo +.)
- Toxicity In Vivo LD50 Rat p.o. [3]: 80 mg/kg
- EC50 Ex Vivo BSMI 1–3d [9]: (+) 0.5 μg mL^–1
- Ex Vivo BSMI 1–3d, toxic (+) / nontoxic (−), microbial metabolites [9]: (+) 0.5 (key: (+): For the microbial metabolites, EC50 < 5 µg mL^−1 and <10 µg mL^−1 were considered as toxic in the BSMI and ICP assays, respectively; nontoxic as (−))
- EC50 In Vitro ICP 2d [10]: (+) 6 μg mL^–1
- In Vitro ICP 2d, toxic (+) / nontoxic (−), microbial metabolites [10]: (+) 6 (key: (+): For the microbial metabolites, EC50 < 5 µg mL^−1 and <10 µg mL^−1 were considered as toxic in the BSMI and ICP assays, respectively; nontoxic as (−))
- Toxicity profile of pure toxins and chemicals in the BSMI and ICP assays [11]: toxic in both the BSMI and ICP tests

Compound: Polyethyleneglycol monalkyl ether [Genapol X 080]
- Toxicity In Vivo LD50 Rat p.o. [3]: >2000 mg/kg
- In Vivo (toxicity to experimental animals), xenobiotic chemicals [5]: + (key: LD50 Fish Inhaled <10 μg mL ^–1 = Toxic in vivo Marked as +.)
- Toxicity In Vivo LD50 Fish [5]: 5 mg/L
- Mitochondrial Toxicity 1d (EC50, acceleration of glycolysis and depolarization of mitochondria) [6]: (+) 5 μg mL^–1
- Mitochondrial toxicity after testing with somatic cells [6]: Mitochondrial toxicity was recorded
- EC50 Ex Vivo BSMI 1–3d [9]: (+) 3 μg mL^–1
- Ex Vivo BSMI 1–3d, toxic (+) / nontoxic (−), xenobiotic chemicals [9]: (+) 3 (key: (+): For the xenobiotic chemicals, EC50 values < 10 µg mL^−1 and <20 µg mL^−1 were considered as toxic in the BSMI assay and in the ICP assay, respectively; nontoxic as (−))
- EC50 In Vitro ICP 2d [10]: (−) 30 μg mL^–1
- In Vitro ICP 2d, toxic (+) / nontoxic (−), xenobiotic chemicals [10]: (−) 30
